# From publication PMC9476334 (Chemico-Biological Interactions, 2022)
# Biological target: SARS-CoV-2 spike S1 RBD / ACE2 interaction (S-RBD protein binding to ACE2) (Severe acute respiratory syndrome coronavirus 2, UniProt P0DTC2)
# Assay: biochemical
smiles,measurement,value
N=C(N)c1ccc(/N=N/Nc2ccc(C(=N)N)cc2)cc1 [DIZE],IC50,20.6 µM
